Earlier results as cited in patent US20230218508A1, “BIODEGRADABLE COMPOSITIONS AND IMPLANTS” (RE-VANA THERAPEUTICS LTD, priority 2020, published 2023).

Details: target daily release level; for ranibizumab and BEZ about five times the literature IC50

| Molecule | minimum therapeutic level [µg/day] |
| --- | --- |
| Bevacizumab [BEZ] | 0.5 |
| CC(C)OC(=O)CCC/C=C\C[C@@H]1[C@@H](CC[C@@H](O)CCc2ccccc2)[C@H](O)C[C@@H]1O [LP, Latanoprost] | 0.105 |
| Ranibizumab (antibody, chains of the INN, looked up, V domains shown, Fab, Marketed antibody therapeutic (LUCENTIS®) with molecular weight close to Ovalbumin) VH: EVQLVESGGGLVQPGGSLRLSCAASGYDFTHYGMNWVRQAPGKGLEWVGWINTYTGEPTYAADFKRRFTFSLDTSKSTAYLQMNSLRAEDTAVYYCAKYPYYYGTSHWYFDVWGQGTLVTVSS VL: DIQLTQSPSSLSASVGDRVTITCSASQDISNYLNWYQQKPGKAPKVLIYFTSSLHSGVPSRFSGSGSGTDFTLTISSLQPEDFATYYCQQYSTVPWTFGQGTKVEIK | 0.5 |
